Results on eight compounds are retold here after patent publication US20130171178A1, “Immunogenic Peptides of Xage-1” (THE GOVERNMENT OF THE UNITED STATES AS REPRESENTED BY THE …, priority 2003, published 2013).

In one test the target is T1, HLA-A2 (Homo sapiens, UniProt P04439, D140Y/D185E/D98H/E176V/E277Q/G131W/G231S/I119V/I121R/I166T/I218V/L300P/L318F/N151K/N90K/P208A/P217A/Q86G/Q94H/R138H/R169H/T345S).
T1 construct: host or cells: T2 cells (human T-B lymphoblast hybrid, TAP1/TAP2 deficient)
The test is described as follows: T2 binding assay (HLA-A2 expression on T2 cells by flow cytometry). On the technique in general: A flow cytometer gives signals particle by particle.

Test [1] deals with C1R.AAD cells pulsed or unpulsed with peptide. The test is described as follows: CTL 51Cr-release assay, spleen cells of peptide-immunized HLA-A2 transgenic mice against peptide-pulsed or unpulsed targets. As to conditions: spleen cells from immunized HLA-A2-transgenic mice. Type of test: in vivo. The source says:
(§1) FIG. 3. CTLs induced with peptide of the invention can lyse human cancer cell expressing XAGE-1. Spleen cells derived from HLA-A2 transgenic mice immunized with a peptide of the invention (SEQ ID NO:6), as the effector cells, were stimulated in vitro for two weeks and used for a CTL assay. C1R.AAD cells pulsed or unpulsed with a peptide of SEQ ID NO:6 and a human osteosarcoma cell line expressing XAGE-1 (SB, described in Liu et al, Can Research 60:4752-4755 (2000)) were used as target cells. “E:T Ratio” stands for “Effector:Target ratio,” as indicated on the axis.
(§2) Xage-1 14 peptide (50 nmol) was emulsified in incomplete Freund's adjuvant with 50 nmol of a helper epitope derived from HCV core128-140, 5 μg of IL-12, and 5 μg of GM-CSF. Transgenic A2 Kb mice were immunized s.c. with the emulsified peptide and given a booster shot at 2 weeks. […] A week after the second stimulation, cells were harvested and measured for cytotoxic activity. The cytotoxic activity was measured by 4-hr ^51Cr-release assay. The percentage of specific ^51Cr release was determined as follows: (experimental release−spontaneous release)/(maximum release−spontaneous release)×100. Maximum release was determined from supernatants of cells that were lysed by addition of 5% Triton X-100. Spontaneous release was determined from target cells incubated without added effector cells. […]

The subject of test [2] is HLA-A2 positive human Ewing's sarcoma cell line which expresses XAGE-1 mRNA. The test is described as follows: CTL lysis of human XAGE-1-expressing cancer cells by CTLs of immunized HLA-A2 transgenic mice. Type of test: in vivo.
Text: as §1, §2

[3] abbreviates: T2 binding assay, enhanced xage-1 14 peptides, read-out: Binding Affinity to HLA-A2 (FI50).
Where [4] appears, read: T2 cells, overnight incubation with peptide and β2-microglobulin, read-out: binding affinity to HLA-A2 (F.I.50).

Read-outs that look alike come from different tables or passages of the source. Where a SMILES comes first, the peptide text is derived from it. Bounds are passed on as bounds.

On to `CSCC[C@H](NC(=O)[C@@H](NC(=O)CN)C(C)C)C(=O)N1CCC[C@H]1C(=O)N[C@@H](CO)C(=O)N[C@@H](C)C(=O)N1CCC[C@H]1C(=O)N[C@@H](CO)C(=O)N1CCC[C@H]1C(=O)N[C@H](C(=O)O)C(C)C` [3M xage-1 14, GVMPSAPSPV] (H-GVMPSAPSPV-OH; N-terminus and C-terminus assumed), for which, at HLA-A2 (T2 binding assay), the “binding to HLA-A2 (in words)” value is on record as “particularly high binding affinity to HLA-A2”. Moreover, the EC50 on HLA-A2 (setting [3]) was 0.28 µM.
With `CC[C@H](C)[C@H](NC(=O)[C@H](Cc1c[nH]c2ccccc12)NC(=O)[C@@H](NC(=O)[C@H](CCC(=O)O)NC(=O)[C@@H]1CCCN1C(=O)[C@@H](NC(=O)[C@H](CCCNC(=N)N)NC(=O)[C@@H](NC(=O)[C@H](C)N)[C@@H](C)O)C(C)C)C(C)C)C(=O)N[C@@H](CC(C)C)C(=O)O` [xage-1 33, ATRVPEVWIL, reference compound] (H-ATRVPEVWIL-OH), the EC50 on HLA-A2 (setting [4]) is more than 50 µM.
For the compound `CSCC[C@H](NC(=O)[C@@H](NC(=O)[C@@H]1CCCN1C(=O)[C@H](CO)NC(=O)[C@H](CCCNC(=N)N)NC(=O)[C@@H]1CCCN1C(=O)[C@H](CO)NC(=O)[C@H](C)NC(=O)[C@@H](NC(=O)[C@@H](N)Cc1c[nH]cn1)[C@@H](C)O)C(C)C)C(=O)O` [xage-1 57, HTASPRSPVM, reference compound] (H-HTASPRSPVM-OH), on HLA-A2 (setting [4]), the EC50 was more than 50 µM.
Regarding `CC(C)[C@H](NC(=O)[C@@H]1CCCN1C(=O)[C@H](CO)NC(=O)[C@@H]1CCCN1C(=O)[C@H](C)NC(=O)[C@H](CO)NC(=O)[C@@H]1CCCN1C(=O)[C@H](Cc1ccccc1)NC(=O)[C@@H](NC(=O)[C@@H](N)Cc1ccc(O)cc1)C(C)C)C(=O)O` [1Y xage-1 14, YVFPSAPSPV] (H-YVFPSAPSPV-OH; N-terminus and C-terminus assumed), the EC50 at HLA-A2 (setting [3]) stood at 2.36 µM.
`CC(C)[C@H](NC(=O)[C@@H]1CCCN1C(=O)[C@H](CO)NC(=O)[C@@H]1CCCN1C(=O)[C@H](C)NC(=O)[C@H](CO)NC(=O)[C@@H]1CCCN1C(=O)[C@H](Cc1ccccc1)NC(=O)[C@@H](NC(=O)CN)C(C)C)C(=O)O` [xage-1 14, GVFPSAPSPV] (H-GVFPSAPSPV-OH; N-terminus and C-terminus assumed): in test [1] (stimulated twice in vitro, targets pulsed with xage-1 14), the “specific lytic activity against peptide-pulsed targets” value is reported as “lysed target cells pulsed with peptide”. Also, the “lytic activity against target cells not pulsed with peptide” value in test [1] (unpulsed targets) is listed as “did not lyse target cells not pulsed with peptide”. The “binding to HLA-A2 (in words)” value at HLA-A2 (T2 binding assay) is given as “surprisingly stronger binding to HLA-A2 compared to other candidate peptides”. Besides, the EC50 at HLA-A2 (setting [4]) lay in the range of 0.7 to 0.8 µM. Besides, the “killing of human XAGE-1-expressing cancer cells by CTLs (FIG. 3)” value in test [2] (CTLs from HLA-A2 transgenic mice immunized with peptide, varying E:T ratio) was “killed human RAGE-1-expressing cancer cells in a dose dependent manner”. Moreover, the “lysis of human Ewing's sarcoma cells by CTLs” value in test [2] (CTLs from mice immunized twice with peptide, restimulated in vitro) is on record as “lysed the human Ewing's sarcoma cells”.
On to `CC(C)C[C@H](NC(=O)CN)C(=O)N[C@@H](Cc1ccccc1)C(=O)N1CCC[C@H]1C(=O)N[C@@H](CO)C(=O)N[C@@H](C)C(=O)N1CCC[C@H]1C(=O)N[C@@H](CO)C(=O)N1CCC[C@H]1C(=O)N[C@H](C(=O)O)C(C)C` [2L xage-1 14, GLFPSAPSPV] (H-GLFPSAPSPV-OH; N-terminus and C-terminus assumed), for which the EC50 at HLA-A2 (setting [3]) was found to be 1.86 µM.
Consider `CSCC[C@H](NC(=O)[C@H](CC(C)C)NC(=O)CN)C(=O)N1CCC[C@H]1C(=O)N[C@@H](CO)C(=O)N[C@@H](C)C(=O)N1CCC[C@H]1C(=O)N[C@@H](CO)C(=O)N1CCC[C@H]1C(=O)N[C@H](C(=O)O)C(C)C` [2L3M xage-1 14, GLMPSAPSPV] (H-GLMPSAPSPV-OH; N-terminus and C-terminus assumed), for which the “binding to HLA-A2 (in words)” value at HLA-A2 (T2 binding assay) is recorded as “particularly high binding affinity to HLA-A2”. Besides, the EC50 on HLA-A2 (setting [3]) amounted to 0.62 µM.
As for `CC(C)C[C@H](NC(=O)[C@@H](N)Cc1ccc(O)cc1)C(=O)N[C@@H](Cc1ccccc1)C(=O)N1CCC[C@H]1C(=O)N[C@@H](CO)C(=O)N[C@@H](C)C(=O)N1CCC[C@H]1C(=O)N[C@@H](CO)C(=O)N1CCC[C@H]1C(=O)N[C@H](C(=O)O)C(C)C` [1Y2L xage-1 14, YLFPSAPSPV] (H-YLFPSAPSPV-OH; N-terminus and C-terminus assumed), the EC50 on HLA-A2 (setting [3]) worked out at 3.04 µM.
